Values quoted from earlier work as cited in patent US8858963B1, “Tamper resistant composition comprising hydrocodone and acetaminophen for rapid onset and extended duration of analgesia” (Mallinckrodt LLC, priority 2011, dated 2014).

System: hepatic GSH
Details: Swiss mice

Compound: CC(=O)Nc1ccc(O)cc1 [acetaminophen]
- onset of circulating hepatic GSH changes after administration (acetaminophen 100 mg/kg to 600 mg/kg): ≤ 15 min
- time of minimum GSH level after injection (all dose groups (100 mg/kg to 600 mg/kg)): 2 h
